Test results published in US20060189608A1, “Methods for treating ocular angiogenesis, retinal edema, retinal ischemia, and diabetic retinopathy using selective RTK inhibitors” (Alcon, Inc., priority 2005, published 2006).
pIC50: −log10 of the molar value.

What was measured:
[1] = target: IGFR (Homo sapiens, UniProt P08069); experiment: Kinase inhibition profile, non-related TK; format: biochemical; conditions: ATP concentration of 1 nM
[2] = target: FYN (Homo sapiens, UniProt P06241); experiment: Kinase inhibition profile, non-related TK; format: biochemical; conditions: ATP concentration of 1 nM
FYN, sequence (P06241 whole entry): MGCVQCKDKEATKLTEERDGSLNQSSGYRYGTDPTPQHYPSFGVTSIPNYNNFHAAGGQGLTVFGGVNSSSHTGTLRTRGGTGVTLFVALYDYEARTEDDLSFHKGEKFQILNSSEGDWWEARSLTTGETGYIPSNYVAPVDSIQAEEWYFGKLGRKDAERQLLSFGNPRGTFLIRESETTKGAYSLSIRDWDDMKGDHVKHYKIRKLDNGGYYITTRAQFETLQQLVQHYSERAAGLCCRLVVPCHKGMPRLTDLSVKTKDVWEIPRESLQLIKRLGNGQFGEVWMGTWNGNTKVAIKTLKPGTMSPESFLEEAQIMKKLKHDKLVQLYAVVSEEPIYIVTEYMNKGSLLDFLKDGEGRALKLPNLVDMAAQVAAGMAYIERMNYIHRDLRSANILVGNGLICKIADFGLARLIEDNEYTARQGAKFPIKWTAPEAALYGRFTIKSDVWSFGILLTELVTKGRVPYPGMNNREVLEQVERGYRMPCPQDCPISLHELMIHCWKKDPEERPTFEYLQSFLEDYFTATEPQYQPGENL

IGFR, sequence (P08069 31-1367): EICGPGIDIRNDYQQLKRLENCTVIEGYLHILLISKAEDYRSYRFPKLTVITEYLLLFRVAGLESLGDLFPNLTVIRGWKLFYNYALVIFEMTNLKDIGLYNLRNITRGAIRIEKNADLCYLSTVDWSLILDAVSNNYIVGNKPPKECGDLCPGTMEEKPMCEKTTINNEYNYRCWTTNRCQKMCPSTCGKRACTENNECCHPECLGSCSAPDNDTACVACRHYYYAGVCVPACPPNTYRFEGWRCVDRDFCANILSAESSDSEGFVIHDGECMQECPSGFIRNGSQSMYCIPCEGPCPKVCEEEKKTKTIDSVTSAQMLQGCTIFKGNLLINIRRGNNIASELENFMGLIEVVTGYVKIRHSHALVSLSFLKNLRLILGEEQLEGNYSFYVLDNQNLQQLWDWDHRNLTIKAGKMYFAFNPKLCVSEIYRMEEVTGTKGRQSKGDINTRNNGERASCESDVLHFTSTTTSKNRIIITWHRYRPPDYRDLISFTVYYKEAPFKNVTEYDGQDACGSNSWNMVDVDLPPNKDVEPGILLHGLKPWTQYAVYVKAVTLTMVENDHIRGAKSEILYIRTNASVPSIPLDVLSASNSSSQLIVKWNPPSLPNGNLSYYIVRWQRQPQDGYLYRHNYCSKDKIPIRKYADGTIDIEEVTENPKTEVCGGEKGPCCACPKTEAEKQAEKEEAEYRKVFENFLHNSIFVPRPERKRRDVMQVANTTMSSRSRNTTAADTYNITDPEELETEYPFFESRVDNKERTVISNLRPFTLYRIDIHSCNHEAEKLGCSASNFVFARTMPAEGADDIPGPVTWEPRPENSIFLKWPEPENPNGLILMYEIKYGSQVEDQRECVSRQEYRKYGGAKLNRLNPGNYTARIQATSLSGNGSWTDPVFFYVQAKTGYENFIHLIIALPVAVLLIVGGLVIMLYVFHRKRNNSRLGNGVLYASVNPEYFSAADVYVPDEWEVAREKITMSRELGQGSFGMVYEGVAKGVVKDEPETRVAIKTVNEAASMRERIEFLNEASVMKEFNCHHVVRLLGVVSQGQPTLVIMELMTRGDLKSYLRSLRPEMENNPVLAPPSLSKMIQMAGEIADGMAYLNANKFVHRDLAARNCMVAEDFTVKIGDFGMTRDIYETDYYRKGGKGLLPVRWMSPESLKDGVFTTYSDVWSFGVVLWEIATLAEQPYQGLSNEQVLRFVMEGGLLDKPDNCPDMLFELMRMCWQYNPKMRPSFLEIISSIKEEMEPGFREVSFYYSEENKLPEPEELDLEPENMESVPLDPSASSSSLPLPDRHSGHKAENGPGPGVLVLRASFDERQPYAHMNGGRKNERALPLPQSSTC

Cc1ccc(F)c(NC(=O)Nc2ccc(-c3cccc4[nH]nc(N)c34)cc2)c1 [AL-39324, N-[4-[3-amino-1H-indazol-4-yl)phenyl]-N′-(2-fluoro-5-methylphenyl)urea]
pIC50 [1]: < 4.30
pIC50 [2]: < 4.30
